# Results published in patent US8664217B2, “Benzodiazepine compound and pharmaceutical composition” (Otsuka Pharmaceutical Co., Ltd., priority 2008, dated 2014).
smiles,measurement,value
"CCN1C(=O)C(C)(C)C(=O)N(C)c2cc(OCCCN(CCc3cccnc3)C(=O)c3ccncc3)ccc21 [Example 459, N-[3-(1-ethyl-3,3,5-trimethyl-2,4-dioxo-2,3,4,5-tetrahydro-1H-benzo[b][1,4]diazepin-7-yloxy)propyl]-N-(2-pyridin-3-ylethyl)isonicotinamide]",melting point,88.1 to 92.2 °C
